Values of other authors in patent publication US20060193783A1, “Low dose corticosteroid composition” (priority 2003, published 2006).

Experiments:
[1] = used nasally

Row | solubility in water | SMILES | nasal irritation [1]
1 | virtually insoluble in water | CCCC1O[C@@H]2C[C@H]3[C@@H]4CCC5=CC(=O)C=C[C@]5(C)[C@H]4[C@@H](O)C[C@]3(C)[C@]2(C(=O)CO)O1 (some centres unmarked) [Budesonide] | –
2 | – | CN1CCCC1=O [N-methyl pyrrolidone] | does not cause any nasal irritation
